Reference: US20240018118A1, “TRICYCLIC COMPOUNDS TO DEGRADE NEOSUBSTRATES FOR MEDICAL THERAPY” (C 4 Therapeutics, Inc., priority 2020, published 2024)
Where two headings read alike, the source gives them in different places.

Experiments:
IKZF4 = IKZF4 (Homo sapiens, UniProt Q96SW2+Q9H2S9); details: cited from earlier work
IKZF2 = IKZF2 (Homo sapiens, UniProt Q96SW2+Q9UKS7); details: cited from earlier work
IKZF1 = target: T1, IKZF1 (Homo sapiens, UniProt Q13422+Q96SW2); assay: HiBiT degradation assay, NCIH929.11 (HiBiT-IKZF1) cells; format: cell-based; details: for DC50: NCHI929.11 cells, 6 hours; for Emax: read-out: HiBiT-Degradation NCHI929.11 IKZF1 6 hours Emax, NCHI929.11 cells
T1 construct: endogenously expressing IKZF1 with HiBiT fusion tag via CRISPR; endogenous in cells; host or cells: NCIH929.11 (CRISPR knock-in)
Method: RPMI no-phenol red medium and fetal bovine serum (FBS) were purchased from Gibco (Grand Island, NY, USA). Nano-Glo® HiBiT Lytic Assay System was purchased from Promega (Madison, WI, USA). NCIH929.11 (HiBiT-IKZF1) cell line was generated in house, endogenously expressing IKZF1 with HiBiT fusion tag via CRISPR. Cell culture flasks and 384-well microplates were acquired from VWR (Radnor, PA, USA).
IKZF 1 degradation was determined based on quantification of luminescent signal using Nano-Glo® HiBiT Lytic Assay kit. Test compounds were added to the 384-well plate from a top concentration of 10 μM with 11 points, half-log titration in duplicates. NCIH929.11 cells expressing HiBiT-tagged TKZF1 were added into 384-well plates in RPMI medium containing 10% FBS and 0.05 mM 2-mercaptoethanol at a cell density of 15000 cells per well. The plates were kept at 37° C. with […] for 6 hours. Cells treated in the absence of the test compound were the negative control and wells containing media only were the positive control. After 6-hour incubation, Nano-Glo® HiBiT Lytic Assay reagents were added to the designated wells. Luminescence was acquired on EnVision™ Multilabel Reader (PerkinElmer, Santa Clara, CA, USA).

GSPT1 = GSPT1 (Homo sapiens, UniProt P15170+Q96SW2); assay: HiBiT degradation assay, 293T.114 cells, GSPT1; format: cell-based; details: 293T.114 cells
Method: GSPT1 degradation was determined based on quantification of luminescent signal using Nano-Glo® HiBiT Lytic Assay kit. Test compounds were added to the 384-well plate from a top concentration of 10 μM with 5 points, 3-fold titration in quadruplicates. 293T.114 cells were added into 384-well plates at a cell density of 6000 cells per well. […] The cells treated in the absence of the test compound were the negative control and the cells without Nano-Glo® HiBiT Lytic reagent were the positive control. […] Luminescence was acquired on EnVision™ Multilabel Reader (PerkinElmer, Santa Clara, CA, USA).

SALL4 = SALL4 (Homo sapiens, UniProt Q96SW2+Q9UJQ4); assay: HiBiT degradation assay, KELLY.2 (SALL4-HiBiT) cells; format: cell-based; details: for DC50: KELLY.2 cells, 6 hours; for Emax: read-out: HiBiT-Degradation KELLY.2 SALL4 6 hours Emax, KELLY.2 cells
Method: RPMI 1640 Medium without phenol red, fetal bovine serum (FBS), and Sodium Pyruvate (100 mM) were purchased from Gibco (Grand Island, NY, USA). Nano-Glo® HiBiT Lytic Assay System was purchased from Promega (Madison, WI, USA). […] Cell culture flasks and 384-well microplates were acquired from VWR (Radnor, PA, USA).
SALL4 degradation was determined based on quantification of luminescent signal using Nano-Glo® HiBiT Lytic Assay kit. Test compounds were added to the 384-well plate from a top concentration of 10 μM with 11 points, half log titration in duplicates. KELLY.2 cells were added into 384-well plates at a cell density of 6000 cells per well. The plates were kept at 37° C. with 5% CO2 for 6 hours. The cells treated in the absence of the test compound were the negative control and the cells without Nano-Glo® HiBiT Lytic reagent were the positive control. After 6-hour incubation, Nano-Glo® HiBiT Lytic Assay reagents were added to the cells. Luminescence was acquired on EnVision™ Multilabel Reader (PerkinElmer, Santa Clara, CA, USA).

CRBN = target: T2, CRBN (Homo sapiens, UniProt Q96SW2); assay: NanoBRET CRBN binding, 293T.116 cells; details: 2 hours
T2 construct: expressed in transfected cells; host or cells: 293T (line named 293T.116)

[1] = target: T3, CRBN-NanoLuc® fusion protein in 293T cells (Homo sapiens, UniProt Q96SW2); assay: NanoBRET assay: competitive displacement of pomalidomide-NanoBRET tracer from CRBN-NanoLuc in 293T.116 cells; format: binding; details: 2 h at 37° C., tracer at 300 nM
T3 construct: expressed in transfected cells; host or cells: 293T (line named 293T.116)
Method: The cell permeability and binding affinity of test compounds to cellular cereblon (CRBN) was determined by competitive displacement of a pomalidomide-NanoBRET™ tracer reversibly bound to a CRBN-NanoLuc® fusion protein in 293T cells. 293T cells were modified by lentiviral transfection to express a fusion of CRBN and NanoLuc® luciferase. […] Affinity of test compound was determined by displacement of NanoBRET-pomalidomide tracer signal following the addition of NanoBRET reagents (Promega) per manufacturer's instructions.
40 μL 293T.116 cells suspended in OptiMEM media at 2×10^5 cells/mL (8000 cells/well) were dispensed using a Multidrop Combi Reagent Dispenser (Thermo Fisher) to each well of 384-well white TC-treated microplates. 10 mM DMSO test compound stock solution was serially diluted (half log) in DMSO to generate 11-point dose series (10000, 3160, 1000, 316, 100, 31.6, 10, 3.2, 1, 0.3, 0.1 μM) in an acoustic ready 384-well low dead volume microplate (Labcyte). […] 20 μL NanoBRET TE Assay reagents were added to each well and NanoBRET signal was acquired on an EnVision Multilabel Reader (PerkinElmer). Donor emission from CRBN-NanoLuc was detected at 450 nm with a NanoLuc 460/50 filter and Acceptor fluorescence of NanoBRET-pomalidomide tracer (618 nm) was detected with a 600 nm long pass NanoBRET filter. Ratio of Acceptor signal/Donor signal was calculated for each well. […]

[2] = 24 hours, read-out: HiBiT-Degradation 293T.114 GSPT1 24 hours DC50
[3] = 24 hours, read-out: HiBiT-Degradation 293T.114 GSPT1 24 hours Emax
[4] = 48 hours, read-out: HiBiT-Degradation 293T.114 GSPT1 48 hours DC50
[5] = 48 hours, read-out: HiBiT-Degradation 293T.114 GSPT1 48 hours Emax
[6] = 6 hours, read-out: HiBiT-Degradation 293T.114 GSPT1 6 hours DC50
[7] = read-out: HiBiT-Degradation 293T.114 GSPT1 6 hours Emax, 6 hours

Row | SMILES | DC50 (IKZF1) | Emax (IKZF1) | DC50 (GSPT1; [2]) | Emax (GSPT1; [3]) | DC50 (GSPT1; [4]) | Emax (GSPT1; [5]) | DC50 (SALL4) | Emax (SALL4) | IC50 (CRBN) | DC50 (GSPT1; [6]) | Emax (GSPT1; [7]) | IC50 [1] | degradation of IKZF4 (IKZF4) | degradation of IKZF2 (IKZF2)
1 | Cc1nc2cccc(N)c2c(=O)n1C1CCC(=O)NC1=O (stereo not shown) [CC-122] |  |  |  |  |  |  |  |  |  |  |  |  | not degraded | not degraded
2 | O=C1CC[C@H](N2Cc3c(OCc4ccc(CN5CCOCC5)cc4)cccc3C2=O)C(=O)N1 [CC-220] |  |  |  |  |  |  |  |  |  |  |  |  | efficiently degraded | efficiently degraded
3 | N#Cc1ccc(Cc2ccc3c4c(cccc24)N(C2CCC(=O)NC2=O)C3=O)cc1 (stereo not shown) [Compound 66, 4-[[1-(2,6-dioxo-3-piperidyl)-2-oxo-benzo[cd]indol-5-yl]methyl]benzonitrile] | > 10000 nM | 60 to 95% | > 10000 nM | 60 to 95% | > 10000 nM | 60 to 95% | 100 to 1000 nM | 45 to 60% | < 100 nM |  |  |  |  | 
4 | CCOc1ccc(Cc2ccc3c4c(cccc24)N(C2CCC(=O)NC2=O)C3=O)cc1 (stereo not shown) [Compound 68, 3-[5-[(4-ethoxyphenyl)methyl]-2-oxo-benzo[cd]indol-1-yl]piperidine-2,6-dione] | > 10000 nM | 60 to 95% |  |  |  |  | > 10000 nM | 60 to 95% | < 100 nM | > 10000 nM | 60 to 95% |  |  | 
5 | CCOC(=O)c1cc(Cc2ccc3c4c(cccc24)N(C2CCC(=O)NC2=O)C3=O)ccc1F (stereo not shown) [Compound 69, ethyl 5-[[1-(2,6-dioxo-3-piperidyl)-2-oxo-benzo[cd]indol-5-yl]methyl]-2-fluoro-benzoate] | > 10000 nM | 60 to 95% |  |  |  |  | > 10000 nM | 60 to 95% | < 100 nM | > 10000 nM | 60 to 95% |  |  | 
6 | N#Cc1ccc(N2CCN(Cc3ccc(Cc4ccc5c6c(cccc46)C(=O)N5[C@H]4CCC(=O)NC4=O)cc3)CC2)c(F)c1 [Compound 78, (S)-4-(4-(4-((1-(2,6-dioxopiperidin-3-yl)-2-oxo-1,2-dihydrobenzo[cd]indol-6-yl)methyl)benzyl)piperazin-1-yl)-3-fluorobenzonitrile] | < 100 nM | < 45% |  |  |  |  | < 100 nM | < 45% | < 100 nM | > 10000 nM | 60 to 95% |  |  | 
7 | Nc1cccc2c1C(=O)N(C1CCC(=O)NC1=O)C2=O (stereo not shown) [pomalidomide] |  |  |  |  |  |  |  |  |  |  |  |  | not degraded | not degraded

The next lines start with results.

Row | DC50 (IKZF1) | Emax (IKZF1) | DC50 (GSPT1; [2]) | Emax (GSPT1; [3]) | DC50 (GSPT1; [4]) | Emax (GSPT1; [5]) | DC50 (SALL4) | Emax (SALL4) | IC50 (CRBN) | DC50 (GSPT1; [6]) | Emax (GSPT1; [7]) | IC50 [1] | SMILES | degradation of IKZF4 (IKZF4) | degradation of IKZF2 (IKZF2)
8 | > 10000 nM | 45 to 60% | > 10000 nM | 60 to 95% | > 10000 nM | 60 to 95% | < 100 nM | < 45% | < 100 nM |  |  |  | O=C1CCC(N2C(=O)c3ccc(CNCc4cc(F)ccc4F)c4cccc2c34)C(=O)N1 (stereo not shown) [Compound 155, 3-[5-[[(2,5-difluorophenyl)methylamino]methyl]-2-oxo-benzo[cd]indol-1-yl]piperidine-2,6-dione] |  | 
9 | 100 to 1000 nM | < 45% | > 10000 nM | 60 to 95% | > 10000 nM | 60 to 95% | < 100 nM | < 45% | < 100 nM |  |  |  | O=C1CCC(N2C(=O)c3ccc(CNCCc4ccc(Cl)cc4)c4cccc2c34)C(=O)N1 (stereo not shown) [Compound 157] |  | 
10 | < 100 nM | < 45% | < 100 nM | < 45% |  |  | < 100 nM | < 45% | < 100 nM | < 100 nM | < 45% |  | O=C1CCC(N2C(=O)c3ccc(CN4CC(Oc5ccccc5)C4)c4cccc2c34)C(=O)N1 (stereo not shown) [Compound 158] |  | 
11 | 1000 to 10000 nM | < 45% | > 10000 nM | 60 to 95% | > 10000 nM | 60 to 95% | > 10000 nM | 60 to 95% | < 100 nM |  |  |  | CC(C)OC1CCN(Cc2cc3c4c(cccc4c2)N(C2CCC(=O)NC2=O)C3=O)CC1 (stereo not shown) [Compound 161] |  | 
12 | < 100 nM | < 45% |  |  |  |  | < 100 nM | < 45% | < 100 nM | > 10000 nM | > 95% |  | CC1(C(=O)N2CCC(n3cc(Cc4ccc5c6c(cccc46)C(=O)N5[C@H]4CCC(=O)NC4=O)cn3)CC2)CCC1 [Compound 206, (3S)-3-[6-[[1-[1-(1-methylcyclobutanecarbonyl)-4-piperidyl]pyrazol-4-yl]methyl]-2-oxo-benzo[cd]indol-1-yl]piperidine-2,6-dione] |  | 
13 | > 10000 nM | 60 to 95% |  |  |  |  | < 100 nM | < 45% | < 100 nM | > 10000 nM | 60 to 95% | 40 nM | O=C1CCC(N2C(=O)c3ccc(Br)c4cccc2c34)C(=O)N1 (stereo not shown) [Compound 224] |  | 
14 |  |  |  |  |  |  |  |  |  |  |  | 60 nM | N#Cc1ccc2c3c(cccc13)N(C1CCC(=O)NC1=O)C2=O (stereo not shown) [Compound 225] |  | 
